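Results reflect a 48-hour exposure of cells in 96-well plates to compound at five concentrations. The concentration for full growth arrest is given as TGI.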
What was measured:
Assay in all cases: NCI tumour cell line growth inhibition, 48 h
[1] = system: SW-620 colon
[2] = system: SF-268 CNS
[3] = system: COLO 205 colon
[4] = system: U251 CNS
[5] = system: UO-31 renal
[6] = system: MALME-3M melanoma
[7] = system: OVCAR-8 ovarian
[8] = system: PC-3 prostate
[9] = system: NCI-H226 lung
[10] = system: BT-549 breast
[11] = system: EKVX NSCLC
[12] = system: RPMI-8226 leukemia
[13] = system: HT29 colon
[14] = system: LOX IMVI melanoma
[15] = system: IGROV1 ovarian
[16] = system: HCC-2998 colon
[17] = system: SR leukemia
[18] = system: MCF7 breast
[19] = system: SK-MEL-5 melanoma
[20] = system: MDA-MB-435
[21] = system: SK-MEL-28 melanoma
[22] = system: 786-0 renal
[23] = system: NCI-H460 lung
[24] = system: HOP-62 NSCLC
[25] = system: M14 melanoma
[26] = system: HCT-15 colon
[27] = system: T-47D breast
[28] = system: SK-MEL-2 melanoma
[29] = system: ACHN renal
[30] = system: UACC-257 melanoma
[31] = system: SN12C renal
[32] = system: OVCAR-5 ovarian
[33] = system: MDA-N
[34] = system: OVCAR-4 ovarian
[35] = system: HS 578T breast
[36] = system: MOLT-4 leukemia
[37] = system: SNB-19 CNS
[38] = system: CCRF-CEM leukemia
[39] = system: HCT-116 colon
[40] = system: SF-295 CNS
[41] = system: NCI-H23 lung
[42] = system: TK-10 renal
[43] = system: CAKI-1 renal
[44] = system: NCI-H522 lung
[45] = system: NCI/ADR-RES ovarian
[46] = system: K-562 leukemia
[47] = system: A549 NSCLC
[48] = system: MDA-MB-231 breast
[49] = system: OVCAR-3 ovarian
[50] = system: SNB-75 CNS
[51] = system: DU-145 prostate
[52] = system: SK-OV-3 ovarian
[53] = system: KM12 colon
[54] = system: HL-60(TB) leukemia
[55] = system: UACC-62 melanoma
[56] = system: SF-539 CNS
[57] = system: RXF 393 renal
[58] = system: A498 renal
[59] = system: HOP-92 NSCLC

Measured: TGI

O=C(/C=C/c1ccc(F)c(F)c1)OCCc1ccccc1
> 100 µM: [1] | [2] | [3] | [4] | [5] | [6] | [7] | [8] | [9] | [10] | [11] | [12] | [13] | [14] | [15] | [16] | [17] | [18] | [19] | [20] | [21] | [22] | [23] | [24] | [25] | [26] | [27] | [28] | [29] | [30] | [31] | [32] | [33] | [34] | [35] | [36] | [37] | [38] | [39] | [40] | [41] | [42] | [43] | [44] | [45] | [46] | [47] | [48] | [49] | [50] | [51] | [52] | [53] | [54] | [55] | [56]

CN(NC(=O)c1cccs1)C1=NCCN1
> 100 µM: [1] | [57] | [2] | [3] | [4] | [5] | [6] | [7] | [8] | [9] | [10] | [11] | [12] | [58] | [13] | [14] | [15] | [16] | [17] | [18] | [19] | [59] | [20] | [21] | [22] | [23] | [24] | [25] | [26] | [27] | [28] | [29] | [30] | [32] | [33] | [34] | [35] | [36] | [37] | [38] | [39] | [40] | [41] | [42] | [44] | [45] | [46] | [47] | [48] | [49] | [50] | [52] | [53] | [54] | [55] | [56]

— PubChem BioAssay (NCI)
